Source: patent US4443619A, “Chlorocitric acids” (Hoffmann-La Roche Inc., priority 1981, dated 1984)

How the values were obtained:
[1] = tested on: Stomach Emptying; experiment: Effect on stomach emptying ([14C]glucose load) in rats (Example 25); type: in vivo; conditions: comparable doses
Procedure: Rats were trained to consume a 3 hr 70% glucose meal from 8 a.m. to 11 a.m. daily. On the experimental day, compounds were administered orally by intubation 30 min before a [^14 C]glucose load was given also by intubation. […] Sixty minutes later the rats were killed by decapitation; blood and stomachs were collected on ice.
Data are expressed as follows: dpm×10^3 per ml of serum and dpm×10^3 per stomach.

[2] = tested on: fatty acid and cholesterol syntheses; experiment: Inhibition of fatty acid, lipid and cholesterol synthesis (summary statements)
[3] = Body weight gain in 8 hour meal-fed Zucker rats (Example 18); type: in vivo, lean (Fa/-) and obese (fa/fa); conditions: 1.32 mmoles/kg b.i.d. oral, 6 days, mean ± S.E.
Procedure: (§1) Lean (Fa/-) Zucker rats and obese (fa/fa) Zucker rats of both sexes were individually housed in wire-bottomed cages in a temperature-regulated (22° C.) light-controlled room (12 hr light, 6 a.m. to 6 p.m. and 12 hr dark, 6 p.m. to 6 a.m.). The animals were fed a high carbohydrate (70% glucose) diet ad libitum for 13 days, dosed with the indicated compounds by oral intubation for 9 days and allowed to recover for 3 days. The animals were then meal fed from 8 a.m. to 4 p.m. for a period of 5 days, following which they were continued on the same meal schedule for an additional 6 days. During the 6-day period, the animals were administered the indicated compounds by oral intubation at 8 a.m. and 12 p.m. Body weight gain during the 6-day period was determined.

[4] = Food intake in dogs, pyramiding oral doses (Examples 26 and 27); type: in vivo, beagle dogs
Procedure: Twelve beagle dogs of both sexes weighing 7.6-12.2 kg were used for this test. The test compounds were contained in gelatin capsules for oral administration to two dogs of each sex. The animals were weighed and food consumption calculated daily excluding weekends throughout the test period. Each animal received 800 grams of diet daily consisting of 400 grams of Wayne pellet dog food mixed with 400 ml distilled water. The animals received pyramiding oral doses of the test compound over the three week period. On Monday and Tuesday of the first week the animals were weighed and food consumption was recorded (control). The animals received 3 mg/kg on Wednesday and 10 mg/kg on Friday of the first week. Doses of 30, 100 and 300 mg/kg were administered on Monday, Wednesday and Friday respectively during the second week. A final dose of 1000 mg/kg was administered on Monday of the third week.
Food intake was determined by the procedure by pyramiding doses described in Example 26.

[5] = Comparative anorectic activity: food consumption in meal-fed rats (acute, Example 13); type: in vivo, Charles River female rats; conditions: 3 hr meal, mean ± S.E.
Procedure: Charles River female rats (Charles River Breeding Laboratories, Wilmington, Mass.), weighing 150 to 175 g, were individually housed in wire-bottomed cages in a temperature-regulated (22° C.) light-controlled room (12 hr light, 6 a.m. to 6 p.m. and 12 hr dark, 6 p.m. to 6 a.m.). Animals were fasted 48 hr, then meal-fed the 70% glucose diet described by A. C. Sullivan, et al., J. Nutrition, 101, 265 (1971) from 8 to 11 a.m. Following 5 to 13 days alimentation on the meal-feeding regimen, rats were dosed with the appropriate compounds orally by intubation 1/2 hr before the 3 hr meal. Food cups were weighed immediately after the meal. The control group consists of 31 rats while each drug treated group consists of 5 to 12 rats.
The G-70 diet consisted of 70% glucose, 23% vitamin-free casein, 5% Phillips and Hart salt mixture IV, 1% corn oil, 1% complete vitamin mixture, and 40 g/kg cellulose. To ensure complete uniformity, all diets were mixed with a twen-shell dry blender equipped with an itensifier bar (Patterson-Kelly Co., East Stroudsburg, Pa.).

[6] = Anorectic effect in 8 hour meal-fed Zucker rats (Example 17); type: in vivo, lean (Fa/-) and obese (fa/fa)
Procedure: as §1, with “p.m.” for “p.m. to”, “Food cups were weighed immediately after” for “Body weight gain during”, “meal.” for “6-day period was determined.”

[7] = tested on: Fatty Acid Synthesis; experiment: Fatty acid synthesis in pair-feeding experiments in rats (Example 24); type: in vivo, female rats of the Charles River CD strain; conditions: 1.32 mmoles/kg
Procedure: Female rats of the Charles River CD strain (Charles River Breeding Laboratories, Wilmington, Mass.) weighing 120-160 g (ca. […] old) were housed individually in wire-bottomed cages in a temperature-regulated (22 C.), light-controlled room (12 hour light 6 A.M.-6 P.M., and dark 6 P.M.-6 A.M.). They had free access to water and were fed a commercial diet (Purina Rodent Chow, Ralston Purina Co., St. Louis, Mo.) ad libitum for at least 1 week prior to the experiment. Animals were fasted 48 hours, then meal-fed a synthetic diet (G-70) daily from 8-11 A.M. for the remainder of the experiment. Food consumption and body weight were measured during the meal-feeding period. […] Food spillage was measured daily.
Each group consisted of 8 to 10 (140 to 160 g) rats. Food intake was monitored for a 3 day period; the animals were dosed immediately before the 3 hr meal. Pair-fed animals were fed the amount of food which the drug treated groups ate on the previous days (days 2 and 3).
Immediately after the 3 hour feeding period, rats were administered intravenously a 0.25 ml saline (pH 7.4 to 7.6) solution with the following composition: 12.3 mg alanine, 5 μCi [^14 C] alanine (specific activity=156 mCi/mmole), 30.6 mg-ketoglutarate (as an amine acceptor for transaminase) and 1 mCi [^3 H] water (specific activity=100 mCi/g). […] [^3 H] Water was employed to determine the total rate of lipogenesis, since tritium is incorporated into fatty acids independent of the source of carbon precursors. Animals were killed by decapitation and blood collected in centrifuge tubes 30 minutes after the radioactive pulse, unless otherwise indicated. The specific radioactivity of the body water of each rat was determined by counting a diluted serum aliquot in 10 ml following cocktail: toluene (2.41), 2-methoxyethanol (1.61), naphthalene (320 g), and BBOT (2,5-bis-2-(5-tert-butylbenzoxazolyl)-thiophene, 16 g). Liver, and small intestine was excised rapidly, weighed, and homogenized in 15 ml H2 O in a Virtis 45 Macro Homogenizer for 15 sec at ca. 30,000 rpm. Duplicate 3 ml aliquots of whole homogenates were saponified, extracted, and the absolute radioactivity (dpm) determined. Liver lipids were extracted totally or separated into fatty acids and cholesterol by anion exchange chromatography. It was determined by anion exchange chromatography that the total lipid extract of liver contained fatty acids (96-97%) and cholesterol (3-4%). Data are expressed as nmoles [^14 C] alanine or μ moles [^3 H] water converted into lipid/g tissue/30 minutes. The nmoles [^14 C] alanine were calculated according to the injected load of alanine, as reported previously by A. C. Sullivan et al., Arch. Biochem. and Biophys., 150, 183 (1972). The μ moles [^3 H] water were determined as described previously by A. C. […]

[8] = test day 20, no dose, (±) one animal, (+) and (-) two animals

Compound: O=C(O)CC(O)(C(=O)O)C(O)C(=O)O (single isomer, unassigned) [hydroxycitric acid, reference compound]
- delay in gastric emptying [1]: delayed gastric emptying
- metabolic activity on lipid (fatty acid) and cholesterol syntheses [2]: inhibition of fatty acid and cholesterol syntheses

Compound: O=C(O)C[C@@](O)(C(=O)O)[C@@H](Cl)C(=O)O (relative stereo) [(±)-threo-Chlorocitric acid]
- Body Weight Gain ([3]; Fa/- lean): -22.9 ± 2.9 g
- Body Weight Gain ([3]; fa/fa obese): -27.9 ± 4.6 g
- Food Consumption, % of control [4, 8]: 167 % of control
- Food consumption [4, 8]: 800 g
- Food consumption ([4]; test days -2, -1, before dosing (control period)): 479 ± 96 g
- Food consumption ([5]; 0.08 mmoles/kg oral): 6.4 ± 0.6 g
- Food consumption ([5]; 0.17 mmoles/kg oral): 6.8 ± 0.7 g
- Food consumption ([5]; 0.33 mmoles/kg oral): 5.7 ± 0.5 g
- Food consumption ([5]; 0.66 mmoles/kg oral): 3.9 ± 0.3 g
- Food consumption ([5]; 1.32 mmoles/kg oral): 3.1 ± 0.4 g
- Food consumption ([5]; 2.63 mmoles/kg oral): 3.8 ± 0.3 g
- Daily Food Consumption ([6]; Fa/- lean, 1.32 mmoles/kg oral, treatment day 1): 11.6 ± 0.8 g
- Daily Food Consumption ([6]; Fa/- lean, 1.32 mmoles/kg oral, treatment day 2): 7.5 ± 0.8 g
- Daily Food Consumption ([6]; Fa/- lean, 1.32 mmoles/kg oral, treatment day 3): 8.6 ± 1.3 g
- Daily Food Consumption ([6]; Fa/- lean, 1.32 mmoles/kg oral, treatment day 4): 6.9 ± 1.0 g
- Daily Food Consumption ([6]; Fa/- lean, 1.32 mmoles/kg oral, treatment day 5): 6.1 ± 0.7 g
- Daily Food Consumption ([6]; Fa/- lean, 1.32 mmoles/kg oral, treatment day 6): 7.2 ± 1.0 g
- Daily Food Consumption ([6]; Fa/- lean, 1.32 mmoles/kg, day 0 (pretreatment)): 12.3 ± 0.7 g
- Daily Food Consumption ([6]; fa/fa obese, 1.32 mmoles/kg oral, treatment day 1): 13.1 ± 0.9 g
- Daily Food Consumption ([6]; fa/fa obese, 1.32 mmoles/kg oral, treatment day 2): 7.8 ± 0.8 g
- Daily Food Consumption ([6]; fa/fa obese, 1.32 mmoles/kg oral, treatment day 3): 6.6 ± 0.2 g
- Daily Food Consumption ([6]; fa/fa obese, 1.32 mmoles/kg oral, treatment day 4): 5.9 ± 0.8 g
- Daily Food Consumption ([6]; fa/fa obese, 1.32 mmoles/kg oral, treatment day 5): 4.6 ± 1.1 g
- Daily Food Consumption ([6]; fa/fa obese, 1.32 mmoles/kg oral, treatment day 6): 5.3 ± 1.3 g
- Daily Food Consumption ([6]; fa/fa obese, 1.32 mmoles/kg, day 0 (pretreatment)): 14.3 ± 0.8 g
- Fatty Acid Synthesis, 3H2O converted ([7]; pair-fed control 25.6 ± 3.9): 21.4 ± 1.6 μmoles ^3 H2 O converted/g liv
- Fatty Acid Synthesis, [14C]alanine converted ([7]; pair-fed control 639 ± 69): 809 ± 67 nmoles [^14 C]alanine converte
